We go through 16 molecules from patent US11572362B2, “Pyrrolo[1,2-b]pyridazine derivatives” (Gilead Sciences, Inc., priority 2018, dated 2023).

In general, EC50 refers to the concentration at which the effect is half-maximal. A word on the IC50: it is the concentration that gives 50% inhibition. The low end stands for inhibition by little substance, the high end for a need for much substance.

One assay has as its system TNFα. Description: IRAK4 Monocyte TNFα Cell Based Assay. Conditions: Monocyte; cryopreserved human monocytes, 50 pg/ml LPS, compound 1 hour pre-treatment, 4 hours stimulation, TNFα by TR-FRET. The protocol:
IRAK4 Monocyte TNFα Cell Based Assay Procedure:
The cell suspension was then plated at a density of 5,000 cells/well onto black 384 well Greiner clear bottom plates. Plates were pre-spotted with test compounds and serially diluted in DMSO where 40 nL/well were delivered using the Echo 550 acoustic liquid dispenser (Labcyte®) for a final DMSO concentration of 0.1%. Plated cells were treated with compound for 1 hour at 37° C. Cells were then stimulated with 50 pg/ml of LPS (Sigma) excluding outside columns of plate used for unstimulated cell control wells. Cells were incubated for an additional 4 hours at 37° C. Cells were then spun out of the media and 5 μl of sample were taken and analyzed for total TNFα content using the TR-FRET Human TNFα detection system (CisBio). This system utilizes two labeled antibodies (cryptate and XL665) that bind to two different epitopes of the TNFα molecule and produce FRET signal proportional to the concentration of TNFα in the sample. Detection antibodies are mixed 50:50 and 5 μL were dispensed into each well. Plates were covered with clear seals and incubated at room temp overnight. The following morning plates were read using an Envision 2103 Multilabeled reader (PerkinElmer) with excitation/emission/FRET emission at 340 nm/615 nm/665 nm, respectively. Fluorescence intensities at 615 nm and 665 nm emission wavelengths were expressed as a ratio (665 nm/615 nm). Percent of control was calculated as follows: % Control=100×(RatioSample−Ratio0% Stimulation)/(Ratio100% Stimulation−Ratio0% Stimulation)
where unstimulated cells (0% stimulation) were the negative control and stimulated cells (100% stimulation) were used as the positive control.

The target of a further assay is IRAK4 (Homo sapiens (Human), UniProt Q9NWZ3). Description: IRAK4 Biochemical Assay (TR-FRET/HTRF). Conditions: IRAK4 enzyme 0.75 nM, 500 μM ATP, 2 μM STK1 peptide, 120 min. The protocol:
IRAK4 Biochemical Assay Procedure:
IRAK4 enzyme (Carna Biosciences, Chuo-ku, Kobe, Japan) activity was measured by detecting phosphorylated peptide substrate formation using an antibody against the phosphorylated peptide substrate. This is a time-resolved fluorescence resonance energy transfer (TR-FRET) immunoassay, based on the STK1 KinEASE Assay (Cisbio, Bedford, Mass.). The assay was designed as a simple two-step, endpoint assay (a 5 μl enzyme reaction followed by 5 μl stop and detect Solution) performed in ProxiPlate-384 Plus plates (Perkin Elmer, Waltham, Mass.). Staurosporine, a non-selective kinase inhibitor was used as a positive control. Compounds diluted in DMSO were spotted into 384 well plates using a Labcyte® Echo 550 Liquid Handling System prior to addition of IRAK4 enzyme and peptide substrate. Reaction solutions were delivered using a Multi-Flo (Bio-Tek Instruments). The enzyme and peptide solution was incubated with compound for 15 minutes at room temp before the reaction was initiated by the addition of ATP. The standard 5 μl reaction mixture contained 500 μM ATP, 2 μM peptide (STK1 Peptide), 0.75 nM of IRAK4 in reaction buffer (50 mM HEPES, pH 7.0, 0.02% NaN3, 0.01% BSA, 0.1 mM Orthovanadate, 5 mM MgCl2, 0.025% NP-40, 1 mM DTT). After 120 min of incubation at room temperature, 5 μl of Stop and Detect Solution (1:100 Cryptate labeled anti-phosphorylated peptide antibody solution and 125 nM Tracer in a 50 mM HEPES pH 7.0 detection buffer containing sufficient EDTA) was added. The plate was then further incubated for 60 minutes at room temperature and read on Envision 2103 Multilabeled reader (PerkinElmer) with excitation/emission/FRET emission at 340 nm/615 nm/665 nm, respectively. Fluorescence intensities at 615 nm and 665 nm emission wavelengths were expressed as a ratio (665 nm/615 nm). Percentage of inhibition was calculated as below: % Inhibition=100×(RatioSample−Ratio0% Inhibition)/(Ratio100% Inhibition−Ratio0% Inhibition)
The 0% inhibition value comes from control wells lacking inhibitor. The 100% inhibition value comes from control wells containing a saturating amount of known inhibitor staurosporine.

Each structure is given as a SMILES string. Bounds are passed on as bounds.

Sequence of IRAK4 (Q9NWZ3 whole entry): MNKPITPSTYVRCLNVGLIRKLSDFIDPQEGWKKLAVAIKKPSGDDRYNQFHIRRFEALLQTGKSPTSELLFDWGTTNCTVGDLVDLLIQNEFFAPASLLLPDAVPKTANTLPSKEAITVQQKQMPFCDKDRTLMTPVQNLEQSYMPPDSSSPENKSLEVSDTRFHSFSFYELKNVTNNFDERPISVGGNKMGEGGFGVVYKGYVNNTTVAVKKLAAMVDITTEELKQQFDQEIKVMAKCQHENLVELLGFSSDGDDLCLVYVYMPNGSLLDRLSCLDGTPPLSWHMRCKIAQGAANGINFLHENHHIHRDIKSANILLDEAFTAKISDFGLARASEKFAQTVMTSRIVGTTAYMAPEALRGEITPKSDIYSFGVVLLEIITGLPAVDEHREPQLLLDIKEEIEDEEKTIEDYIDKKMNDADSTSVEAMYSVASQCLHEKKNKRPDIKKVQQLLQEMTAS

With `CC(C)(O)[C@H](F)CNC(=O)c1cnc(-c2ccc3cc(C#N)cnn23)cc1N[C@H]1CC[C@H](n2nccc2C(F)F)CC1` [Compound 28, 6-(3-cyanopyrrolo[1,2-b]pyridazin-7-yl)-4-(((1r,4R)-4-(5-(difluoromethyl)-1H-pyrazol-1-yl)cyclohexyl)amino)-N-((R)-2-fluoro-3-hydroxy-3-methylbutyl)nicotinamide], the EC50 in the assay with TNFα is 187 nM. The same molecule gave an IC50 against IRAK4 of 2 nM.
For `Cc1nnc(C23CCC(Nc4cc(-c5ccc6cc(C#N)cnn56)ncc4C(=O)NC[C@@H](F)C(C)(C)O)(CC2)CC3)o1` [Compound 60, (R)-6-(3-cyanopyrrolo[1,2-b]pyridazin-7-yl)-N-(2-fluoro-3-hydroxy-3-methylbutyl)-4-((4-(5-methyl-1,3,4-oxadiazol-2-yl)bicyclo[2.2.2]octan-1-yl)amino)nicotinamide], in that order: 15 nM and under 1 nM.
For `Cn1cc([C@H]2CC[C@H](Nc3cc(-c4ccc5cc(C#N)cnn45)ncc3C(=O)NC[C@@H](F)C(C)(C)O)CC2)cn1` [Compound 7, 6-(3-cyanopyrrolo[1,2-b]pyridazin-7-yl)-N-((R)-2-fluoro-3-hydroxy-3-methylbutyl)-4-(((1r,4R)-4-(1-methyl-1H-pyrazol-4-yl)cyclohexyl)amino)nicotinamide], in that order: 18 nM and 1 nM.
For the molecule `CC(C)(O)[C@H](F)CNC(=O)c1cnc(-c2ccc3cc(C#N)cnn23)cc1N[C@H]1CC[C@H](c2cncs2)CC1` [Compound 49, 6-(3-cyanopyrrolo[1,2-b]pyridazin-7-yl)-N-((R)-2-fluoro-3-hydroxy-3-methylbutyl)-4-(((1r,4R)-4-(thiazol-5-yl)cyclohexyl)amino)nicotinamide], the EC50 in the assay on TNFα was determined as 13 nM. Further, the IC50 on IRAK4 is under 1 nM.
On to `Cc1nnc(C23CCC(Nc4cc(-c5ccc6cc(C#N)cnn56)ncc4C(=O)NC[C@@H](F)C(C)(C)O)(CC2)CO3)o1` [Compound 64, (R)-6-(3-cyanopyrrolo[1,2-b]pyridazin-7-yl)-N-(2-fluoro-3-hydroxy-3-methylbutyl)-4-((1-(5-methyl-1,3,4-oxadiazol-2-yl)-2-oxabicyclo[2.2.2]octan-4-yl)amino)nicotinamide], for which, in the assay on TNFα, the EC50 came out at 19 nM. Also, the IC50 against IRAK4 was under 1 nM.
The like results for `CC(C)(O)[C@H](F)CNC(=O)c1cnc(-c2ccc3cc(C#N)cnn23)cc1NC12CCC(c3cnco3)(CC1)CC2` [Compound 66, (R)-6-(3-cyanopyrrolo[1,2-b]pyridazin-7-yl)-N-(2-fluoro-3-hydroxy-3-methylbutyl)-4-((4-(oxazol-5-yl)bicyclo[2.2.2]octan-1-yl)amino)nicotinamide] were, in that order, 8 nM and under 1 nM.
Consider `CC(C)(O)[C@H](F)CNC(=O)c1cnc(-c2ccc3cc(C#N)cnn23)cc1N[C@H]1CC[C@H](c2cn(C(F)F)nn2)CC1` [Compound 18, 6-(3-cyanopyrrolo[1,2-b]pyridazin-7-yl)-4-(((1r,4R)-4-(1-(difluoromethyl)-1H-1,2,3-triazol-4-yl)cyclohexyl)amino)-N-((R)-2-fluoro-3-hydroxy-3-methylbutyl)nicotinamide], for which, in the assay with TNFα, the EC50 turned out to be 27 nM. This molecule had an IC50 against IRAK4 of 1 nM.
In the case of `Cc1nnc([C@H]2CC[C@H](Nc3cc(-c4ccc5cc(C#N)cnn45)ncc3C(=O)NC[C@@H](F)C(C)(C)O)CC2)o1` [Compound 39, 6-(3-cyanopyrrolo[1,2-b]pyridazin-7-yl)-N-((R)-2-fluoro-3-hydroxy-3-methylbutyl)-4-(((1r,4R)-4-(5-methyl-1,3,4-oxadiazol-2-yl)cyclohexyl)amino)nicotinamide], the EC50 with TNFα came out at 33 nM. At IRAK4, the IC50 is under 1 nM.
In the case of `CC(C)(O)[C@H](F)CNC(=O)c1cnc(-c2ccc3cc(C#N)cnn23)cc1N[C@H]1CC[C@@H](c2cn[nH]c2)CC1` [Compound 2, 4-(((1s,4S)-4-(1H-pyrazol-4-yl)cyclohexyl)amino)-6-(3-cyanopyrrolo[1,2-b]pyridazin-7-yl)-N-((R)-2-fluoro-3-hydroxy-3-methylbutyl)nicotinamide], in the assay on TNFα, the EC50 was 66 nM. The same molecule returned an IC50 on IRAK4 of under 1 nM.
With `CC(C)(O)[C@H](F)CNC(=O)c1cnc(-c2ccc3cc(C#N)cnn23)cc1NC12CCC(N3CCOCC3=O)(CC1)CC2` [Compound 69, (R)-6-(3-cyanopyrrolo[1,2-b]pyridazin-7-yl)-N-(2-fluoro-3-hydroxy-3-methylbutyl)-4-((4-(3-oxomorpholino)bicyclo[2.2.2]octan-1-yl)amino)nicotinamide], the EC50 in the assay with TNFα was found to be 15 nM. Further, at IRAK4, the IC50 was under 1 nM.
For `Cc1c([C@H]2CC[C@H](Nc3cc(-c4ccc5cc(C#N)cnn45)ncc3C(=O)NC[C@@H](F)C(C)(C)O)CC2)cnn1C(F)F` [Compound 11, 6-(3-cyanopyrrolo[1,2-b]pyridazin-7-yl)-4-(((1r,4R)-4-(1-(difluoromethyl)-5-methyl-1H-pyrazol-4-yl)cyclohexyl)amino)-N-((R)-2-fluoro-3-hydroxy-3-methylbutyl)nicotinamide], in that order: 17 nM and 1 nM.
Regarding `CC(C)(O)[C@H](F)CNC(=O)c1cnc(-c2ccc3cc(C#N)cnn23)cc1N[C@H]1CC[C@H](c2cnn(C3CC3)c2)CC1` [Compound 14, 6-(3-cyanopyrrolo[1,2-b]pyridazin-7-yl)-4-(((1r,4R)-4-(1-cyclopropyl-1H-pyrazol-4-yl)cyclohexyl)amino)-N-((R)-2-fluoro-3-hydroxy-3-methylbutyl)nicotinamide], the EC50 in the assay on TNFα amounted to 53 nM. On IRAK4, half-maximal inhibition (IC50) was put at 1 nM.
Regarding `CC(C)(O)[C@H](F)CNC(=O)c1cnc(-c2ccc3cc(C#N)cnn23)cc1N[C@H]1CC[C@H](n2cc(C#N)cn2)CC1` [Compound 24, 4-(((1r,4R)-4-(4-cyano-1H-pyrazol-1-yl)cyclohexyl)amino)-6-(3-cyanopyrrolo[1,2-b]pyridazin-7-yl)-N-((R)-2-fluoro-3-hydroxy-3-methylbutyl)nicotinamide], the EC50 with TNFα came to 19 nM. For the same molecule, the IC50 at IRAK4 was under 1 nM.
The like results for `CC(C)(O)[C@H](F)CNC(=O)c1cnc(-c2ccc3cc(C#N)cnn23)cc1N[C@H]1CC[C@H](n2cc(C(F)F)nn2)CC1` [Compound 35, 6-(3-cyanopyrrolo[1,2-b]pyridazin-7-yl)-4-(((1r,4R)-4-(4-(difluoromethyl)-1H-1,2,3-triazol-1-yl)cyclohexyl)amino)-N-((R)-2-fluoro-3-hydroxy-3-methylbutyl)nicotinamide] were, in that order, 16 nM and under 1 nM.
In the case of `CC(C)(O)[C@H](F)CNC(=O)c1cnc(-c2ccc3cc(C#N)cnn23)cc1N[C@H]1CC[C@H](c2cn[nH]c2)CC1` [Compound 1, 4-(((1r,4R)-4-(1H-pyrazol-4-yl)cyclohexyl)amino)-6-(3-cyanopyrrolo[1,2-b]pyridazin-7-yl)-N-((R)-2-fluoro-3-hydroxy-3-methylbutyl)nicotinamide], the EC50 in the assay with TNFα was found to be 4 nM. On IRAK4, the half-inhibitory concentration (IC50) is under 1 nM.
Regarding `CC(C)(O)[C@H](F)CNC(=O)c1cnc(-c2ccc3cc(C#N)cnn23)cc1N[C@H]1CC[C@H](c2nnc(C(F)F)o2)CC1` [Compound 42, 6-(3-cyanopyrrolo[1,2-b]pyridazin-7-yl)-4-(((1r,4R)-4-(5-(difluoromethyl)-1,3,4-oxadiazol-2-yl)cyclohexyl)amino)-N-((R)-2-fluoro-3-hydroxy-3-methylbutyl)nicotinamide], the EC50 with TNFα came out at 24 nM. Moreover, on IRAK4, the IC50 is under 1 nM.
